Data taken from paper PMC8151276, “An Integrated Approach toward NanoBRET Tracers for Analysis of GPCR Ligand Engagement” (Molecules, 2021).

Key:
Type in all cases: binding
TBXA2R = target: T1, TBXA2R (Homo sapiens, UniProt P21731); test: NanoBRET screen HiBiT-TBXA2R in HEK293
T1 construct: purchased Promega (in-house HiBiT-GPCR construct library, NanoBRET)
T1 sequence (P21731 1-343): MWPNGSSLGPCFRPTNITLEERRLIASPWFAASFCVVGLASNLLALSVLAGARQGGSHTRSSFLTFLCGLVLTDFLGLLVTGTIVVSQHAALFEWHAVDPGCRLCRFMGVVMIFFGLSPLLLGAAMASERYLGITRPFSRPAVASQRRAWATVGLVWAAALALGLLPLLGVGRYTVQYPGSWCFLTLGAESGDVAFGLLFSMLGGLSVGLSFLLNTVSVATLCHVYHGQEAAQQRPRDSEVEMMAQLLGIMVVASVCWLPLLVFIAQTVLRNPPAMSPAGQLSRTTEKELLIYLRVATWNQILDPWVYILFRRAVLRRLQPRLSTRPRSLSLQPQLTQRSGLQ
Protocol: (§1) Each tracer candidate was screened across the entire library of HiBiT-GPCR constructs using NanoBRET as the detection modality. As depicted in Figure 4A, the specificity of interactions was evaluated through decrease in BRET due to competitive displacement of a bound tracer by excess parental compound. Each tracer was analyzed for binding to each HiBiT-GPCR fusion in the absence and in the presence of competing parental compound. Briefly, HEK293 cells were transfected with HiBiT-GPCR constructs diluted into promoterless DNA to reduce expression and maximize translocation to the cell surface. Each tracer candidate was then screened at concentrations of 1 μM and 0.1 μM across cells expressing these fusions. Cells were treated for 1.5 h with tracer either alone or in the presence of 20 μM competing parental compound (i.e., control). BRET was measured upon addition of purified LgBiT and subsequent complementation with HiBiT genetically fused to a GPCR. The specificity of interactions was assessed through a decrease in BRET signal due to competitive displacement of the bound tracer. To further gauge the robustness of these interactions, the fold response over the control (i.e., BRETtracer/BRETcontrol) was calculated. We chose a 1.5-fold response, which translates to ≥7-fold signal over noise as the minimal threshold required to score an interaction as positive. […]. Below we highlight the screening results obtained for our exemplary fluorescent tracers based on Clozapine, Amitriptyline and AZD1283.
(§2) HiBiT-GPCR DNA constructs were diluted in 10 mM Tris pH 8 to a final concentration of 0.01 μg/μL, arrayed in 96-well plates and stored at −20 °C. For transfection, HEK293 cells were suspended in Opti-MEM (without phenol red) supplemented with 2% fetal bovine serum (Seradigm) and 100 units/mL penicillin–streptomycin (Gibco) at a final concentration of 220,000 cells/mL and dispensed into white 96-well plates at 90 μL/well. Subsequent transfections and screens were carried using an Agilent Bravo Automated Liquid Handling Platform. First, the 96-well HiBiT DNA arrays were diluted 25-fold in Opti-MEM (without serum or phenol red) to a final concentration of 0.0004 μg/μL and 20 μL of the diluted DNAs were transferred into new 96-well plates. Next, promoterless carrier DNA (1 μg/μL) was diluted 25-fold (0.04 μg/μL) and then dispensed into the diluted arrays at 20 μL/well. Following brief mixing, Viafect transfection reagent (Promega) diluted 16-fold into Opti-MEM was dispensed into the plates at 40 μL/well. After mixing by pipetting, plates were incubated for 10 min on the pipetting station deck. The DNA-transfection reagent complexes were then added to plates containing cells. To facilitate the screen, 10 μL of DNA-transfection reagent complexes were added in duplicates to the top 4 and bottom 4 rows, resulting in two identical 48-well arrays per plate. Plates with transfected cells were incubated for 18–20 h at 37 °C/5% CO2. A screen of each tracer across the entire library using two different concentrations requires duplicate plates of transfected cells. Depending on the number of tracers being screened, transfections can be scaled up using the same ratios. The next day, for each tracer, four 20× screening solutions in tracer dilution buffer (Promega) were prepared: two duplicates at final concentration of 20 μM and two duplicates at a final concentration of 2 μM. A competing unmodified compound was added to one of each duplicate at a final concentration of 400 μM. The four resulting solutions were diluted 4-fold in Opti-MEM without serum or phenol red to generate 5× solutions (5 µM and 0.5 µM tracer +/− 100 μM competing compound). To screen the library, a BioTek MultiFlo FX liquid dispenser was used to dispense 22.5 µL of tracer solution to the top 4 rows and 22.5 µL tracer + competing compound solution to the 4 bottom rows. Plates were briefly mixed on an orbital shaker and incubated for 1.5 h at room temperature. […]

BDKRB2 = target: T2, BDKRB2 (Homo sapiens, UniProt P30411); test: NanoBRET screen HiBiT-BDKRB2 in HEK293
T2 construct: purchased Promega (in-house HiBiT-GPCR construct library, NanoBRET)
T2 sequence (P30411 1-391): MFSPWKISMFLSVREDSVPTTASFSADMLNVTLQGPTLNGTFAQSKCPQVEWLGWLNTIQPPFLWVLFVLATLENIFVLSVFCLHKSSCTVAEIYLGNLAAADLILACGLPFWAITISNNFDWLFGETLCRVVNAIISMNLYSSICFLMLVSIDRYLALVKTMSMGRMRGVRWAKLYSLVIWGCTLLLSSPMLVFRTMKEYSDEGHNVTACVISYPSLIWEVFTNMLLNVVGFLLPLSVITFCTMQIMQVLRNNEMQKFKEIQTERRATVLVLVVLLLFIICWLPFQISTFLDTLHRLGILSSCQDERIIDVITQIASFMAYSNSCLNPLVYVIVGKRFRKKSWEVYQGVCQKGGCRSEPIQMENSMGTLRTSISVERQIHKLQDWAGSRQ
Protocol: as §1, §2

NPY2R = target: T3, NPY2R (Homo sapiens, UniProt P49146); test: NanoBRET screen HiBiT-NPY2R in HEK293
T3 construct: purchased Promega (in-house HiBiT-GPCR construct library, NanoBRET)
T3 sequence (P49146 1-381): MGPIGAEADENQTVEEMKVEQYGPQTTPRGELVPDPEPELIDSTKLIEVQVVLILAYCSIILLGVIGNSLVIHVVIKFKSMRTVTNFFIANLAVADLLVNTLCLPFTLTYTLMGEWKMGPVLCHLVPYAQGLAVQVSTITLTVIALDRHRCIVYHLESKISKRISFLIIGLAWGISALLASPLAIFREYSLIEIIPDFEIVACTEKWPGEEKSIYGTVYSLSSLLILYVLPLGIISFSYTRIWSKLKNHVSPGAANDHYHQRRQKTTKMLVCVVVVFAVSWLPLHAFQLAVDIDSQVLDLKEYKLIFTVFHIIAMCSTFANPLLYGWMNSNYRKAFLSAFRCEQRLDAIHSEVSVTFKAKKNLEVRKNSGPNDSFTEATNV
Protocol: as §1, §2

For CN1CCN(C2=Nc3cc(Cl)ccc3N(CC(=O)NCCOCCOCCOCCOCCNC(=O)CCc3ccc4n3[B-](F)(F)[N+]3=C(c5ccc[nH]5)C=CC3=C4)c3ccccc32)CC1 [Clozapine-c-2-NB590], the “NanoBRET Fold Response” value (TBXA2R; TBXA2R, 0.1μM tracer) was 1.03, the “NanoBRET Fold Response” value (TBXA2R; TBXA2R, 1μM tracer) was 0.95 and the “NanoBRET Fold Response” value (BDKRB2; BDKRB2, 0.1μM tracer) was 1.00. For the same molecule, the “NanoBRET Fold Response” value (BDKRB2; BDKRB2, 1μM tracer) was 1.03, the “NanoBRET Fold Response” value (NPY2R; NPY2R, 0.1μM tracer) was 1.01 and the “NanoBRET Fold Response” value (NPY2R; NPY2R, 1μM tracer) was 0.99.
For CN(C)CCC=C1c2ccccc2CCc2ccc(C(=O)NCCNC(=O)CCOCCOCCOCCOCCNC(=O)CCc3ccc4n3[B-](F)(F)[N+]3=C(c5ccc[nH]5)C=CC3=C4)cc21 [Amitriptyline-a-2-NB590], the “NanoBRET Fold Response” value (BDKRB2; tracer at 0.1μM) was 1.01, the “NanoBRET Fold Response” value (BDKRB2; tracer at 1μM) was 1.04 and the “NanoBRET Fold Response” value (NPY2R; tracer at 0.1μM) was 0.99. The “NanoBRET Fold Response” value (NPY2R; tracer at 1μM) was 0.98.
In the case of Cc1nc2n(c(=O)c1CCN1CCC(c3noc4cc(F)ccc34)CC1)CCCC2OC(=O)NCCOCCOCCOCCOCCNC(=O)CCc1ccc2n1[B-](F)(F)[N+]1=C(c3ccc[nH]3)C=CC1=C2 (stereo not shown) [Risperidone-2-NB590], the “NanoBRET Fold Response” value (TBXA2R; TBXA2R, tracer 0.1μM) is reported as 0.93, the “NanoBRET Fold Response” value (TBXA2R; TBXA2R, tracer 1μM) is reported as 1.01 and the “NanoBRET Fold Response” value (BDKRB2; BDKRB2, tracer 0.1μM) is reported as 0.92. For the same molecule, the “NanoBRET Fold Response” value (BDKRB2; BDKRB2, tracer 1μM) was 0.96, the “NanoBRET Fold Response” value (NPY2R; NPY2R, tracer 0.1μM) was 1.07 and the “NanoBRET Fold Response” value (NPY2R; NPY2R, tracer 1μM) was 0.98.
In the case of COc1ccc2[nH]c(-c3ccc(CNC(=O)CCOCCOCCOCCOCCNC(=O)CCc4ccc5n4[B-](F)(F)[N+]4=C(c6ccc[nH]6)C=CC4=C5)cc3)c(CCNC(C)=O)c2n1 [AzomelatoninICO9-2-NB590], the “NanoBRET Fold Response” value (TBXA2R; 0.1μM tracer) is reported as 1.27, the “NanoBRET Fold Response” value (TBXA2R; 1μM tracer) is reported as 0.99 and the “NanoBRET Fold Response” value (BDKRB2; 0.1μM tracer) is reported as 0.96. For the same molecule, the “NanoBRET Fold Response” value (BDKRB2; 1μM tracer) was 0.93, the “NanoBRET Fold Response” value (NPY2R; 0.1μM tracer) was 0.99 and the “NanoBRET Fold Response” value (NPY2R; 1μM tracer) was 0.88.
COc1ccccc1N1CCN(CCCCN2C(=O)c3ccc(CNC(=O)CCOCCOCCOCCOCCNC(=O)CCc4ccc5n4[B-](F)(F)[N+]4=C(c6ccc[nH]6)C=CC4=C5)cc3C2=O)CC1 [NAN-190-2-NB590] was tested, and the “NanoBRET Fold Response” value (TBXA2R; TBXA2R, tracer 0.1μM) was 1.07, the “NanoBRET Fold Response” value (TBXA2R; TBXA2R, tracer 1μM) was 1.06 and the “NanoBRET Fold Response” value (BDKRB2; BDKRB2, tracer 0.1μM) was 1.08. The “NanoBRET Fold Response” value (BDKRB2; BDKRB2, tracer 1μM) was 0.98, the “NanoBRET Fold Response” value (NPY2R; NPY2R, tracer 0.1μM) was 1.00 and the “NanoBRET Fold Response” value (NPY2R; NPY2R, tracer 1μM) was 0.92.
In the case of O=C(CCc1ccc2n1[B-](F)(F)[N+]1=C(c3ccc[nH]3)C=CC1=C2)NCCOCCOCCNC(=O)OCCOCCN1CCN(C2=Nc3ccccc3Sc3ccccc32)CC1 [Quetiapine-a-2-NB590], the “NanoBRET Fold Response” value (TBXA2R; TBXA2R, tracer 0.1μM) is reported as 1.01, the “NanoBRET Fold Response” value (TBXA2R; TBXA2R, tracer 1μM) is reported as 1.05 and the “NanoBRET Fold Response” value (BDKRB2; BDKRB2, tracer 0.1μM) is reported as 1.11. The “NanoBRET Fold Response” value (BDKRB2; BDKRB2, tracer 1μM) was 0.81, the “NanoBRET Fold Response” value (NPY2R; NPY2R, tracer 0.1μM) was 0.99 and the “NanoBRET Fold Response” value (NPY2R; NPY2R, tracer 1μM) was 0.85.
With O=C(CCOCCOCCOCCOCCNC(=O)CCc1ccc2n1[B-](F)(F)[N+]1=C(c3ccc[nH]3)C=CC1=C2)NCCCN1CCN(C2=Nc3cc(Cl)ccc3Nc3ccccc32)CC1 [Clozapine-a-2-NB590] the “NanoBRET Fold Response” value (TBXA2R; TBXA2R, 0.1μM tracer) was 1.08, the “NanoBRET Fold Response” value (TBXA2R; TBXA2R, 1μM tracer) was 1.08 and the “NanoBRET Fold Response” value (BDKRB2; BDKRB2, 0.1μM tracer) was 1.02. The “NanoBRET Fold Response” value (BDKRB2; BDKRB2, 1μM tracer) was 1.13, the “NanoBRET Fold Response” value (NPY2R; NPY2R, 0.1μM tracer) was 0.94 and the “NanoBRET Fold Response” value (NPY2R; NPY2R, 1μM tracer) was 1.11.
